In patent US9562053B2, “Benzo-fused heterocyclic derivatives useful as agonists of GPR120” (Janssen Pharmaceutica NV, priority 2013, dated 2017):

Tests used:
[1] = molecular target: T1, Human GPR120 short form (Homo sapiens, UniProt Q5NUL3); assay: Human GPR120 in Calcium Flux Assay, Procedure Calcium A (2500 cells/well); format: cell-based
T1 construct: expressed in transfected cells
T1 sequence (Q5NUL3 1-361): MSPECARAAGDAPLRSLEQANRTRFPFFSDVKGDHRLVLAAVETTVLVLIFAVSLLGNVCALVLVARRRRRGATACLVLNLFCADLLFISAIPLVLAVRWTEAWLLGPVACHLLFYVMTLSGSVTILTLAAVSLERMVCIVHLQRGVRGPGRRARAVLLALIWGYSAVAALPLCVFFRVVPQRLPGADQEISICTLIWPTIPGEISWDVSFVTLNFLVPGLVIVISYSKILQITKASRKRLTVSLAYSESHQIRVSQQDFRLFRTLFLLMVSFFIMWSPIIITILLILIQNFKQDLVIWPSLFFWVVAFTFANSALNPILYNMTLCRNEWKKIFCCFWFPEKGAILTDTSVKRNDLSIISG
Summary of the method: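 HEK293 cells stably expressing GPR120 short isoform, 2500 cells/well, serum-starved 1 h, loaded with Fluo-4 NW plus probenecid (30 min 37 °C, 15 min RT). Compounds prepared at 0.012–100 μM, 0.2% DMSO final. FLIPR calcium signal over 300 s as Fmax−Fmin; EC50 from variable-slope fit (Hill <2).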

[2] = system: C57bl/6J Mice; assay: C57bl6 mouse OGTT; format: in vivo
Protocol: (§1) Male, C57bl/6J Mice were ordered in at 8 weeks of age from Jackson Labs. Individual mice weighed anywhere in the range of 25-30 grams on study day. The mice were fasted, with removal of food occurring at 7 am on the morning of the study. Animals were moved into the room at 10:00 am, to give them time to acclimate. Glucose (insulin syringes) was drawn up either the night before or the morning of the study. Glucose was dosed (IP) at 1.5 g/kg at 7.5 ml/kg (20% glucose straight TEKNOVA, 250 ml sterile bottle w/catalogue number G0525). Test compounds were kept spinning and were only drawn into the syringes prior to study commencement. Animals were bled via tail snip to determine basal glucose levels prior to dosing of treatments. An Ascensia BREEZE Blood Glucose Monitoring System by Bayer (using unique 10-test disks) was used for determining glucose levels. The bleeds started at approximately 12:45 pm and dosing started, at 1-minute intervals, immediately after. All groups were dosed 30 minutes prior to glucose administration at a dose volume of 10 ml/kg (the dose volume was calculated separately for each individual animal). Thirty minutes after the first dose animals were bled again for a second baseline, or T=0, and immediately dosed with glucose via an i.p. injection. The exact dose volume for glucose was also calculated separately for each individual animal. Glucose measurements were taken at −30 min prior to compound dose, at t=0 (immediately prior to glucose dose), and at 15, 30, 45, 60, 90 min post glucose dose.
(§2) Glucose values were entered into an Excel sheet and graphed in GraphPad Prism. The following were calculated from Prism: Change from −30 to 0 BSLN Glucose, Raw Glucose AUC −30 to 90 min, Delta Glucose AUC −30 to 90 min, Raw Glucose AUC 0 to 90 min, Delta Glucose AUC 0 to 90 min.
The assay design is the same as that described above for the C57bl6 mouse IPGTT. The difference is that glucose was dosed PO at 3 g/kg, 7.5 ml/kg of 40% glucose.

[3] = system: C57bl/6J Mice; assay: GPR120 C57bl6 Mouse IPGTT; format: in vivo
Protocol: as §1, §2

Row | SMILES | EC50 [1] [nM] | Dose Responses C57 OGTT ([2]; 3 mg/kg) [%] | Dose Responses C57 OGTT ([2]; 10 mg/kg) [%] | Dose Responses C57 OGTT ([2]; 30 mg/kg) [%] | also measured
1 | CCc1cc2cc(Cl)cc(COc3ccc(CCC(=O)O)c(C)c3C)c2o1 [Compound 11, 3-{4-[(5-Chloro-2-ethyl-1-benzofuran-7-yl)methoxy]-2,3-dimethylphenyl}propanoic acid] | 23 | −30 | −38 | −43 | –
2 | CCc1cc2cc(OC(F)(F)F)cc(COc3ccc(CCC(=O)O)c(C)c3C)c2o1 [Compound 12, 3-(4-{[2-Ethyl-5-(trifluoromethoxy)-1-benzofuran-7-yl]methoxy}-2,3-dimethylphenyl)propanoic acid] | 39 | 6 | −26 | −30 | –
3 | Cc1cc2cc(F)cc(COc3ccc(CCC(=O)O)c(C)c3C)c2o1 [Compound 2, 3-{4-[(5-Fluoro-2-methyl-1-benzofuran-7-yl)methoxy]-2,3-dimethylphenyl}propanoic acid] | 51 | −29 | −31 | −51 | Dose Responses C57 IPGTT ([3]; 1 mg/kg): −3%; Dose Responses C57 IPGTT ([3]; 3 mg/kg): −20%; Dose Responses C57 IPGTT ([3]; 10 mg/kg): −27%; Dose Responses C57 IPGTT ([3]; 30 mg/kg): −53%
4 | CCc1cc2cc(F)cc(COc3ccc(CCC(=O)O)c(C)c3C)c2o1 [Compound 3, 3-{4-[(2-Ethyl-5-fluoro-1-benzofuran-7-yl)methoxy]-2,3-dimethylphenyl}propanoic acid] | 58 | −15 | −24 | −35 | C57 OGTT result ([2]; 30 mg/kg, glucose PO 3 g/kg): −35
5 | Cc1c(CCC(=O)O)ccc(OCc2cc(F)cc3cc(C(C)C)oc23)c1C [Compound 22, 3-(4-{[5-Fluoro-2-(1-methylethyl)-1-benzofuran-7-yl]methoxy}-2,3-dimethylphenyl)propanoic acid] | 166 | – | – | – | –
6 | COCc1cc2cc(F)cc(COc3ccc(CCC(=O)O)c(C)c3C)c2o1 [Compound 21, 3-(4-{[5-Fluoro-2-(methoxymethyl)-1-benzofuran-7-yl]methoxy}-2,3-dimethylphenyl)propanoic acid] | 159 | – | – | – | –

More lines, main results first:

Row | EC50 [1] [nM] | SMILES | Dose Responses C57 OGTT ([2]; 3 mg/kg) [%] | Dose Responses C57 OGTT ([2]; 10 mg/kg) [%] | Dose Responses C57 OGTT ([2]; 30 mg/kg) [%] | also measured
7 | 10 | Cc1cc2cc(OC(F)(F)F)cc(COc3ccc(CCC(=O)O)c(C)c3C)c2o1 [Compound 36, 3-(2,3-Dimethyl-4-{[2-methyl-5-(trifluoromethoxy)-1-benzofuran-7-yl]methoxy}phenyl)propanoic acid] | – | – | – | Dose Responses C57 IPGTT ([3]; 3 mg/kg): −7%; Dose Responses C57 IPGTT ([3]; 10 mg/kg): −36%; Dose Responses C57 IPGTT ([3]; 30 mg/kg): −46%
8 | 34 | CCc1cc2cc(Cl)c(C)c(COc3ccc(CCC(=O)O)c(C)c3C)c2o1 [Compound 40, 3-{4-[(5-Chloro-2-ethyl-6-methyl-1-benzofuran-7-yl)methoxy]-2,3-dimethylphenyl}propanoic acid] | – | – | – | Dose Responses C57 IPGTT ([3]; 1 mg/kg): −28%; Dose Responses C57 IPGTT ([3]; 3 mg/kg): 13%; Dose Responses C57 IPGTT ([3]; 10 mg/kg): −34%
9 | 207 | Cc1cc2cc(Cl)c(C)c(COc3c(F)cc(CCC(=O)O)cc3F)c2o1 [Compound 86, 3-{4-[(5-Chloro-2,6-dimethyl-1-benzofuran-7-yl)methoxy]-3,5-difluorophenyl}propanoic acid] | – | – | – | –
10 | 182 | Cc1cc2c(F)c(OC(F)(F)F)c(F)c(COc3ccc(CCC(=O)O)c(F)c3F)c2o1 [Compound 75, 3-(4-{[4,6-Difluoro-2-methyl-5-(trifluoromethoxy)-1-benzofuran-7-yl]methoxy}-2,3-difluorophenyl)propanoic acid] | – | – | – | –
11 | 93 | CCc1cc2cc(Cl)c(OCC(C)C)c(COc3ccc(CCC(=O)O)c(C)c3C)c2o1 [Compound 67, 3-(4-{[5-Chloro-2-ethyl-6-(2-methylpropoxy)-1-benzofuran-7-yl]methoxy}-2,3-dimethylphenyl)propanoic acid] | – | – | – | –
